# Results: patent publication US7790884B2, “Acylaminopiperidine compound” (Astellas Pharma Inc., priority 2006, dated 2010)
# Structures can show the parent of a compound that is named as a salt.
# Biological target: T1, human CCR4 (Homo sapiens, UniProt P51679)
# T1 construct: expressed in transfected cells; membrane fraction used
# T1 sequence (P51679 1-360): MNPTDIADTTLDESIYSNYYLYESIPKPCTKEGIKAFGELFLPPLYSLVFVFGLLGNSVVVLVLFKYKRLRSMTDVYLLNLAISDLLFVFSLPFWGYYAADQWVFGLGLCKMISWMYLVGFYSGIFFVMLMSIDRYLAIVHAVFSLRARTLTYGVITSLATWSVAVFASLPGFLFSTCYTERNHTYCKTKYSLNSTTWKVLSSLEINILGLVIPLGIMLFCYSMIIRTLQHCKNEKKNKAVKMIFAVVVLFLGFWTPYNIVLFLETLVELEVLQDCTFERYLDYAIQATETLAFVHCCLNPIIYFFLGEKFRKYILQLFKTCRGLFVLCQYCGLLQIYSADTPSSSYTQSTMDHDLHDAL
# Experiment: [35S]GTPγS binding test via CCR4 (human MDC-stimulated, human CCR4 expressing cell line membrane fraction)
# Assay type: biochemical
# Conditions: membrane fraction of human CCR4 expressing B300-16 cells, room temperature 1 hour 30 minutes, read-out: inhibitory activity value (IC50)
# Protocol: Action for [^35S]GTPγS Binding Test Via CCR4 (1) Preparation of Human CCR4 Expressing Cell Line A vector (contains a neomycin-resistance gene) in which human CCR4 gene was inserted into downstream of the EF-1α promoter was prepared and transfected into a mouse pre B cell line B300-16 cells by electroporation. These cells were cultured using a G-418-supplemented medium, and a single cell line capable of producing human CCR4 constantly and stably was obtained by the limiting dilution method. (2) Preparation of Human CCR4 Expressing Cell Line Membrane Fraction The human CCR4 expressing cells were recovered, washed with PBS and then suspended in a lysis buffer (10 mM HEPES pH 7.5, 2 mM EDTA, proteinase inhibitor). After allowing the suspension to stand on ice for 15 minutes, the cells were disintegrated using a homogenizer and centrifuged (2000 rpm, 10 min, 4° C.). The supernatant was further subjected to ultracentrifugation (22 K, 30 min, 4° C.), and then the pellet was suspended in PBS and used in the subsequent test. (3) GTPγS Binding Test In a reaction mixture liquid containing 20 mM of HEPES pH 7.05, 100 mM of NaCl, 5 mM of MgCl2, 2 μM of GDP, human MDC, […] of [^35S]GTPγS, 1 mg of wheat germ agglutinin SPA beads and 1 μg of the human CCR4 expressing cell line membrane fraction, respective concentration of the test compound was allowed to undergo the reaction at room temperature for 1 hour and 30 minutes, and the radioactivity was measured.
row,Compound,IC50 [µM]
1,"COc1cc2nc(N3CCC(N(C)C(=O)[C@@H]4CCCN4)CC3)nc(Nc3ccc(Cl)cc3F)c2cc1OC [Example 2, N-(1-{4-[(4-chloro-2-fluorophenyl)amino]-6,7-dimethoxyquinazolin-2-yl}piperidin-4-yl)-N-methyl-L-prolinamide dihydrochloride]",≤ 0.1
2,CN(C(=O)[C@@H]1CCCN1)C1CCN(c2nc(Nc3ccc(Cl)cc3F)c3ccc(C#N)cc3n2)CC1 [Example 5],≤ 0.1
3,COc1cc2nc(N3CCC(N(C)C(=O)[C@@H]4CCCN4C)CC3)nc(Nc3ccc(Cl)cc3F)c2cc1F [Example 6],≤ 0.1
4,CN(C(=O)[C@@H]1CCCN1C)C1CCN(c2nc(Nc3ccc(Cl)cc3F)c3cc(Br)ccc3n2)CC1 [Example 7],≤ 0.1
5,CCN(C(=O)[C@@H]1CCCN1)C1CCN(c2nc(Nc3ccc(Cl)cc3F)c3cc(OC)c(OC)cc3n2)CC1 [Example 9],≤ 0.1
6,COc1cc2nc(N3CCC(N(C)C(=O)[C@H]4CCCN4)CC3)nc(Nc3ccc(Cl)cc3F)c2cc1OC [Example 10],≤ 0.1
7,CCN(C(=O)[C@H]1CCCN1)C1CCN(c2nc(Nc3ccc(Cl)cc3F)c3cc(OC)c(OC)cc3n2)CC1 [Example 12],≤ 0.1
8,COc1cc2nc(N3CCC(N(C(=O)[C@@H]4CCCN4)C4CC4)CC3)nc(Nc3ccc(Cl)cc3F)c2cc1OC [Example 13],≤ 0.1
9,CN(C(=O)[C@@H]1CCCN1C)C1CCN(c2nc(Nc3ccc(Cl)cc3F)c3ccc(C#N)cc3n2)CC1 [Example 15],≤ 0.1
10,COc1cc2nc(N3CCC(N(C(=O)[C@@H]4CCCN4)C4CCC4)CC3)nc(Nc3ccc(Cl)cc3F)c2cc1OC [Example 16],≤ 0.1
11,COc1cc2nc(N3CCC(N(C(=O)[C@H]4CCCN4)C4CCC4)CC3)nc(Nc3ccc(Cl)cc3F)c2cc1OC [Example 17],≤ 0.1
12,COc1cc2nc(N3CCC(N(C)C(=O)[C@H]4CCCN4C)CC3)nc(Nc3ccc(Cl)cc3F)c2cc1OC [Example 19],≤ 0.1
13,COc1cc2nc(N3CCC(N(C(=O)[C@@H]4CCCN4C)C4CC4)CC3)nc(Nc3ccc(Cl)cc3F)c2cc1OC [Example 20],≤ 0.1
14,COc1cc2nc(N3CCC(N(C(=O)[C@H]4CCCN4C)C4CC4)CC3)nc(Nc3ccc(Cl)cc3F)c2cc1OC [Example 21],≤ 0.1
15,CN(C(=O)[C@H]1CCCN1C)C1CCN(c2nc(Nc3ccc(Cl)cc3F)c3cc(Br)ccc3n2)CC1 [Example 22],≤ 0.1
16,CCN(C(=O)[C@H]1CCCN1C)C1CCN(c2nc(Nc3ccc(Cl)cc3F)c3ccc(C#N)cc3n2)CC1 [Example 24],≤ 0.1
17,CCN(C(=O)[C@H]1CCCN1C)C1CCN(c2nc(Nc3ccc(Cl)cc3F)c3cc(OC)c(OC)cc3n2)CC1 [Example 26],≤ 0.1
18,CN(C(=O)[C@H]1CCCN1)C1CCN(c2nc(Nc3ccc(Cl)cc3F)c3cc(Br)ccc3n2)CC1 [Example 27],≤ 0.1
19,CCN(C(=O)[C@H]1CCCN1)C1CCN(c2nc(Nc3ccc(Cl)cc3F)c3ccc(C#N)cc3n2)CC1 [Example 28],≤ 0.1
20,CN(C(=O)[C@@H]1CCCN1)C1CCN(c2nc(Nc3ccc(Cl)cc3F)c3cc(F)ccc3n2)CC1 [Example 29],≤ 0.1
21,CN(C(=O)[C@H]1CCCN1)C1CCN(c2nc(Nc3ccc(Cl)cc3F)c3cc(F)ccc3n2)CC1 [Example 30],≤ 0.1
22,CN(C(=O)[C@@H]1CCCN1C)C1CCN(c2nc(Nc3ccc(Cl)cc3F)c3cc(F)ccc3n2)CC1 [Example 31],≤ 0.1
23,CN(C(=O)[C@H]1CCCN1C)C1CCN(c2nc(Nc3ccc(Cl)cc3F)c3cc(F)ccc3n2)CC1 [Example 32],≤ 0.1
24,CCN(C(=O)[C@H]1CCCN1)C1CCN(c2nc(Nc3ccc(Cl)cc3F)c3cc(F)ccc3n2)CC1 [Example 33],≤ 0.1
25,COc1cc2c(Nc3ccc(Cl)cc3F)nc(N3CCC(N(C)C(=O)[C@H]4CCCN4)CC3)nc2cc1F [Example 35],≤ 0.1
26,COc1cc2c(Nc3ccc(Cl)cc3F)nc(N3CCC(N(C)C(=O)[C@@H]4CCCN4C)CC3)nc2cc1F [Example 36],≤ 0.1
27,COc1cc2c(Nc3ccc(Cl)cc3F)nc(N3CCC(N(C)C(=O)[C@H]4CCCN4C)CC3)nc2cc1F [Example 37],≤ 0.1
28,CN(C(=O)[C@@H]1CCCN1)C1CCN(c2nc(Nc3ccc(Cl)cc3)c3cc(F)ccc3n2)CC1 [Example 38],≤ 0.1
29,CN(C(=O)[C@H]1CCCN1)C1CCN(c2nc(Nc3ccc(Cl)cc3)c3cc(F)ccc3n2)CC1 [Example 39],≤ 0.1

# Now from value to compound:
row,IC50 [µM],Compound
1,≤ 0.1,CCN(C(=O)[C@H]1CCCN1)C1CCN(c2nc(Nc3ccc(Cl)cc3)c3cc(F)ccc3n2)CC1 [Example 40]
2,≤ 0.1,CN(C(=O)[C@@H]1CCCN1C)C1CCN(c2nc(Nc3ccc(Cl)cc3)c3cc(F)ccc3n2)CC1 [Example 41]
3,≤ 0.1,CN(C(=O)[C@@H]1CCCN1)C1CCN(c2nc(Nc3ccc(Cl)cc3)c3cc(Br)ccc3n2)CC1 [Example 43]
4,≤ 0.1,CN(C(=O)[C@H]1CCCN1)C1CCN(c2nc(Nc3ccc(Cl)cc3)c3cc(Br)ccc3n2)CC1 [Example 44]
5,≤ 0.1,CCN(C(=O)[C@H]1CCCN1)C1CCN(c2nc(Nc3ccc(Cl)cc3)c3cc(Br)ccc3n2)CC1 [Example 45]
6,≤ 0.1,CN(C(=O)[C@@H]1CCCN1C)C1CCN(c2nc(Nc3ccc(Cl)cc3)c3cc(Br)ccc3n2)CC1 [Example 46]
7,≤ 0.1,CN(C(=O)[C@H]1CCCN1C)C1CCN(c2nc(Nc3ccc(Cl)cc3)c3cc(Br)ccc3n2)CC1 [Example 47]
8,≤ 0.1,CCN(C(=O)[C@@H]1CCCN1)C1CCN(c2nc(Nc3ccc(Cl)cc3F)c3cc(F)ccc3n2)CC1 [Example 48]
9,≤ 0.1,CCN(C(=O)[C@@H]1CCCN1C)C1CCN(c2nc(Nc3ccc(Cl)cc3F)c3cc(F)ccc3n2)CC1 [Example 49]
10,≤ 0.1,CCN(C(=O)[C@H]1CCCN1C)C1CCN(c2nc(Nc3ccc(Cl)cc3F)c3cc(F)ccc3n2)CC1 [Example 50]
11,≤ 0.1,CCN(C(=O)[C@@H]1CCCN1C)C1CCN(c2nc(Nc3ccc(Cl)cc3)c3cc(F)ccc3n2)CC1 [Example 51]
12,≤ 0.1,CCN(C(=O)[C@@H]1CCCN1)C1CCN(c2nc(Nc3ccc(Cl)cc3)c3cc(F)ccc3n2)CC1 [Example 53]
13,≤ 0.1,CN(C(=O)[C@@H]1CCCN1)C1CCN(c2nc(Nc3ccc(Cl)cc3F)c3cc(Br)ccc3n2)CC1 [Example 54]
14,≤ 0.1,CCN(C(=O)[C@@H]1CCCN1)C1CCN(c2nc(Nc3ccc(Cl)cc3F)c3cc(Br)ccc3n2)CC1 [Example 55]
15,≤ 0.1,CCN(C(=O)[C@H]1CCCN1)C1CCN(c2nc(Nc3ccc(Cl)cc3F)c3cc(Br)ccc3n2)CC1 [Example 56]
16,≤ 0.1,CCN(C(=O)[C@@H]1CCCN1C)C1CCN(c2nc(Nc3ccc(Cl)cc3F)c3cc(Br)ccc3n2)CC1 [Example 57]
17,≤ 0.1,CCN(C(=O)[C@H]1CCCN1C)C1CCN(c2nc(Nc3ccc(Cl)cc3F)c3cc(Br)ccc3n2)CC1 [Example 58]
18,≤ 0.1,CCN(C(=O)[C@@H]1CCCN1C)C1CCN(c2nc(Nc3ccc(Cl)cc3)c3cc(Br)ccc3n2)CC1 [Example 59]
19,≤ 0.1,CCN(C(=O)[C@H]1CCCN1C)C1CCN(c2nc(Nc3ccc(Cl)cc3)c3cc(Br)ccc3n2)CC1 [Example 60]
20,≤ 0.1,COc1cc2nc(N3CCC(N(C)C(=O)[C@@H]4CCCN4)CC3)nc(Nc3ccc(Cl)cc3F)c2cc1F [Example 61]
21,≤ 0.1,COc1cc2nc(N3CCC(N(C)C(=O)[C@H]4CCCN4)CC3)nc(Nc3ccc(Cl)cc3F)c2cc1F [Example 62]
22,≤ 0.1,CCN(C(=O)[C@@H]1CCCN1)C1CCN(c2nc(Nc3ccc(Cl)cc3F)c3cc(F)c(OC)cc3n2)CC1 [Example 63]
23,≤ 0.1,CCN(C(=O)[C@@H]1CCCN1)C1CCN(c2nc(Nc3ccc(Cl)cc3)c3cc(Br)ccc3n2)CC1 [Example 64]
24,≤ 0.1,CCN(C(=O)[C@H]1CCCN1)C1CCN(c2nc(Nc3ccc(Cl)cc3F)c3cc(F)c(OC)cc3n2)CC1 [Example 65]
25,≤ 0.1,COc1cc2nc(N3CCC(N(C)C(=O)[C@H]4CCCN4C)CC3)nc(Nc3ccc(Cl)cc3F)c2cc1F [Example 66]
26,≤ 0.1,CN(C(=O)[C@H]1CCCN1)C1CCN(c2nc(Nc3ccc(Cl)cc3F)c3ccc(C#N)cc3n2)CC1 [Example 68]
27,≤ 0.1,CCN(C(=O)[C@@H]1CCCN1)C1CCN(c2nc(Nc3ccc(Cl)cc3F)c3ccc(C#N)cc3n2)CC1 [Example 69]
28,≤ 0.1,CN(C(=O)[C@H]1CCCN1C)C1CCN(c2nc(Nc3ccc(Cl)cc3F)c3ccc(C#N)cc3n2)CC1 [Example 70]
29,≤ 0.1,COc1cc2nc(N3CCC(N(C)C(=O)[C@H]4CCCN4)CC3)nc(Nc3cc(F)c(F)cc3F)c2cc1F [Example 72]
30,≤ 0.1,COc1cc2nc(N3CCC(N(C)C(=O)[C@H]4CCCN4)CC3)nc(Nc3ccc(Cl)cc3)c2cc1F [Example 73]
